{"source": "patent US12371414B2", "about": "“Methods of treating neurological disorders” (NEUMORA THERAPEUTICS, INC., priority 2022, dated 2025)", "key": {"[1]": {"target": "T1, CK-1δ (Homo sapiens, UniProt P48730)", "T1 sequence (P48730 whole entry)": "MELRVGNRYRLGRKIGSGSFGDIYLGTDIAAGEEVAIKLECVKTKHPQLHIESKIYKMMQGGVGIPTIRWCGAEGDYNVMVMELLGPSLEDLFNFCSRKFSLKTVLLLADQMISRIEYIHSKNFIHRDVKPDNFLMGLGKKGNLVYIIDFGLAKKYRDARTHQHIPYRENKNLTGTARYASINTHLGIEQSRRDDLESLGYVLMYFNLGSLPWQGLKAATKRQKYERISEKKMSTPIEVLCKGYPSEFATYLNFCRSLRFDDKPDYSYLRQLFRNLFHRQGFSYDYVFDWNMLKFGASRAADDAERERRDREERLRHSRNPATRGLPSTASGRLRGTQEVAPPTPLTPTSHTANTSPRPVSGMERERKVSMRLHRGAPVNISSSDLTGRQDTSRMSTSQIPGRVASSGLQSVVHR", "experiment": "Cellular target engagement (NanoBRET) competition assay", "type": "cell-based", "design": "expressed in transfected cells; host or cells: 293T-HEK cells", "details": "NanoLuc-tagged kinase in 293T-HEK cells, tracer displacement; read-out: NanoBRET CK-1d IC50", "experimental": "The cell based CK-1δ target engagement assay is a NanoBRET competition assay that directly quantifies compound binding to full length kinases in live cells (Robers M et al. Nat. Comm. No 6 (2015)). The assay utilizes a cell permeable fluorescent tracer that reversibly binds to a NanoLuc-tagged kinase expressed in 293T-HEK cells. Intracellular target engagement of an unmodified test compound was measured by competitive displacement of the tracer resulting in a loss of bioluminescence energy transfer (BRET) that was quantified on a microplate-based luminometer.\n(§1) The IC50 ranges are as follows: for NanoBRET IC50 (nM), A denotes <400 nM; B denotes 400 nM≤KD<800 nM; C denotes KD≥800 nM. For the biochemical kinase assay IC50 (nM), A denotes <50 nM; B denotes 50 nM≤IC50<100 nM; C denotes ≥100 nM."}, "[2]": {"target": "T1, CK-1δ", "experiment": "Biochemical kinase assay (HotSpot radioisotope filter binding, Reaction Biology)", "design": "purchased Reaction Biology", "details": "read-out: Biochemical Kinase Assay CK-1d IC50", "experimental": "Biochemical inhibition of CK-1δ and kinome selectivity was assessed using a HotSpot radioisotope filter binding assay (Reaction Biology). In the HotSpot assay, compounds were incubated with the kinase, substrate, cofactors, and radioisotope-labeled ATP. The reaction mixtures are then spotted onto filter papers, which bind the radioisotope-labeled catalytic product that can be quantified.\nas §1"}}, "data": [{"smiles": "CNc1nc(-c2ccncc2)c(-c2ccc(Cl)cc2)c(=O)n1C", "note": "[Compound 1, 5-(4-chlorophenyl)-3-methyl-2-(methylamino)-6-(pyridin-4-yl)pyrimidin-4(3H)-one]", "values": [{"measurement": "IC50", "setting": "[1]", "result": "400 to 800", "unit": "nM"}, {"measurement": "IC50", "setting": "[2]", "result": "< 50", "unit": "nM"}]}, {"smiles": "CC(C)Cc1nc(-c2ccncc2)c(-c2ccc(Cl)cc2)c(=O)[nH]1", "note": "[Compound 2, 5-(4-chlorophenyl)-2-isobutyl-6-(pyridin-4-yl)pyrimidin-4(3H)-one]", "values": [{"measurement": "IC50", "setting": "[1]", "result": "< 400", "unit": "nM"}, {"measurement": "IC50", "setting": "[2]", "result": "< 50", "unit": "nM"}]}, {"smiles": "Cc1cc(-c2nc(CC(C)C)[nH]c(=O)c2-c2ccc(Cl)cc2F)ccn1", "note": "[Compound 3, 5-(4-chloro-2-fluorophenyl)-2-isobutyl-6-(2-methylpyridin-4-yl)pyrimidin-4(3H)-one]", "values": [{"measurement": "IC50", "setting": "[1]", "result": "< 400", "unit": "nM"}, {"measurement": "IC50", "setting": "[2]", "result": "50 to 100", "unit": "nM"}]}]}
